Results reported in patent publication US9006487B2, “Amine-containing lipids and uses thereof” (Massachusetts Institute of Technology, priority 2005, dated 2015).
Several values for one entry are separate records, joined by “and”; a condition that tells them apart may be missing. Equal values may be shown once.

Tested on: cos-7 cells
Test: DNA transfection: luciferase expression relative to Lipofectamine 2000
Type: cell-based
Settings: for Luciferase expression as a percentage of that achieved using Lipofectamine 2000: 300 ng Luciferase DNA per well; for luciferase expression (second part of table, values relative to LIPO2000): 300 ng of DNA per well
How it was run: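 Lipid/DNA complexes, 300 ng luciferase DNA per well at 2.5-25 w/w lipid:DNA, were formed in sodium acetate/Optimem and added to overnight-seeded cos-7 cells. Luciferase was measured by Bright-Glo luminescence after 48 hours and quantified against an enzyme standard curve. Values are expressed as % of Lipofectamine 2000 at 2.5 w/w.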

[1] = lipid/DNA 2.5 w/w, luciferase assay after 48 hours
[2] = lipid/DNA 5 w/w, luciferase assay after 48 hours
[3] = lipid/DNA 10 w/w, luciferase assay after 48 hours
[4] = lipid/DNA 15 w/w, luciferase assay after 48 hours
[5] = lipid/DNA 20 w/w, luciferase assay after 48 hours
[6] = lipid/DNA 25 w/w, luciferase assay after 48 hours

Row | Structure (SMILES) | Luciferase expression as a percentage of that achieved using Lipofectamine 2000 (lipid/DNA 2.5 w/w, 72 hours incubation before bright-glo) | Luciferase expression as a percentage of that achieved using Lipofectamine 2000 [1] | Luciferase expression as a percentage of that achieved using Lipofectamine 2000 (lipid/DNA 5 w/w, 72 hours incubation before bright-glo) | Luciferase expression as a percentage of that achieved using Lipofectamine 2000 [2] | Luciferase expression as a percentage of that achieved using Lipofectamine 2000 (lipid/DNA 10 w/w, 72 hours incubation before bright-glo) | Luciferase expression as a percentage of that achieved using Lipofectamine 2000 [3] | Luciferase expression as a percentage of that achieved using Lipofectamine 2000 (lipid/DNA 15 w/w, 72 hours incubation before bright-glo) | Luciferase expression as a percentage of that achieved using Lipofectamine 2000 [4] | Luciferase expression as a percentage of that achieved using Lipofectamine 2000 (lipid/DNA 20 w/w, 72 hours incubation before bright-glo) | Luciferase expression as a percentage of that achieved using Lipofectamine 2000 [5] | Luciferase expression as a percentage of that achieved using Lipofectamine 2000 (lipid/DNA 25 w/w, 72 hours incubation before bright-glo) | Luciferase expression as a percentage of that achieved using Lipofectamine 2000 [6] | luciferase expression (second part of table, values relative to LIPO2000) (lipid/DNA 2.5 w/w) | luciferase expression (second part of table, values relative to LIPO2000) (lipid/DNA 5 w/w) | luciferase expression (second part of table, values relative to LIPO2000) (lipid/DNA 10 w/w) | luciferase expression (second part of table, values relative to LIPO2000) (lipid/DNA 15 w/w) | luciferase expression (second part of table, values relative to LIPO2000) (lipid/DNA 20 w/w) | luciferase expression (second part of table, values relative to LIPO2000) (lipid/DNA 25 w/w)
1 | CCCCCCCCCCCCCCCOC(=O)CCN(CC)CCCN(CC)CCC(=O)OCCCCCCCCCCCCCCC [LG64] | 0.3% | 0.0% and 0.2% | 0.3% | 0.0% and 0.1% | 1.8% | 0.0% and 0.1% | 1.8% | 0.0% and 0.1% | 1.2% | 0.0% and 0.1% | 1.6% | 0.0% and 0.2% | – | – | – | – | – | –
2 | CCCCCCCCCCCCOC(=O)CCN(CCCCO)CCC(=O)OCCCCCCCCCCCC [LD28] | – | – | – | – | – | 1.7% | – | 8.5% | – | – | – | – | – | – | – | – | – | –
3 | CCCCCCCCCCCCOC(=O)CCN(CCC(=O)OCCCCCCCCCCCC)CCN1CCCC1 [LD76] | – | 0.1% | – | 0.1% | – | 0.2% | – | 0.3% | – | 0.2% | – | 0.4% | – | – | – | – | – | –
4 | CCCCCCCCCCCCCCCOC(=O)CCN(CCC(=O)OCCCCCCCCCCCCCCC)C[C@H](C)O [LG22] | – | 0.2% | – | 0.3% | – | 0.4% | – | 0.5% | – | 0.4% | – | 0.7% | – | – | – | – | – | –
5 | CCCCCCCCCCCCCCOC(=O)CC[N+](C)(CCC(=O)OCCCCCCCCCCCCCC)CCC1CCC[N+]1(C)C.[I-].[I-] (centres unmarked) [QF77] | – | 0.4% | – | 0.4% | – | 0.7% | – | 1.3% | – | 2.7% | – | 9.9% | – | – | – | – | – | –
6 | CCCCCCCCCCCCCCOC(=O)CCN(CCCN1CCOCC1)CCC(=O)OCCCCCCCCCCCCCC [LF91] | – | 0.5% | – | 0.5% | – | 0.8% | – | 1.4% | – | 1.3% | – | 1.6% | – | – | – | – | – | –
7 | CCCCCCCCCCCCCCOC(=O)CCN(CCC(=O)OCCCCCCCCCCCCCC)C1CCC(O)CC1 (centres unmarked) [LF38] | – | 0.8% | – | 0.9% | – | 0.9% | – | 0.9% | – | 0.8% | – | 1.0% | – | – | – | – | – | –
8 | CCCCCCCCCCOC(=O)CCN(CCC(=O)OCCCCCCCCCC)CCN(CC)CC [LB75] | – | 0.1% | – | 0.1% | – | 0.1% | – | 0.1% | – | 0.1% | – | 0.1% | – | – | – | – | – | –
9 | CCCCCCCCCCCCCCCOC(=O)CCN(CCC(=O)OCCCCCCCCCCCCCCC)CC1CCCO1 (centres unmarked) [LG15] | – | 0.7% | – | 0.8% | – | 0.5% | – | 0.6% | – | 0.7% | – | 0.8% | – | – | – | – | – | –
10 | CCCCCCCCCCCCCCOC(=O)CC[N+](C)(CCC(=O)OCCCCCCCCCCCCCC)CC1COC(C)(C)O1.[I-] (centres unmarked) [QF7] | – | 0.0% | – | 0.0% | – | 0.0% | – | 0.0% | – | 0.0% | – | 0.0% | – | – | – | – | – | –
11 | CCCCCCCCCCOC(=O)CCN(CCCCCO)CCC(=O)OCCCCCCCCCC [LB32] | – | 0.1% | – | 0.1% | – | 0.1% | – | 0.1% | – | 0.1% | – | 0.1% | – | – | – | – | – | –
12 | CCCCCCCCCCOC(=O)CC[N+](C)(CCC(=O)OCCCCCCCCCC)CCC1OCCO1.[I-] [QB6] | – | 0.0% | – | 0.0% | – | 0.0% | – | 0.0% | – | 0.0% | – | 0.0% | – | – | – | – | – | –
13 | CCCCCCCCCCCCOC(=O)CCN(CCC(=O)OCCCCCCCCCCCC)CCN1CCCCC1 [LD82] | – | 0.1% | – | 0.1% | – | 0.2% | – | 0.3% | – | 0.4% | – | 0.7% | – | – | – | – | – | –
14 | CCCCCCCCCCOC(=O)CC[N+](C)(CCCOC)CCC(=O)OCCCCCCCCCC.[I-] [QB1] | – | 0.4% | – | 0.3% | – | 0.4% | – | 0.3% | – | 0.4% | – | 0.4% | – | – | – | – | – | –
15 | CCCCCCCCCCCCCCCOC(=O)CCN(CCC(=O)OCCCCCCCCCCCCCCC)C(CO)CO [LG25] | – | 15.9% | – | 32.0% | – | 43.2% | – | 56.9% | – | 42.1% | – | 63.9% | 15.9 | 32.0 | 43.2 | 56.9 | 42.1 | 63.9
16 | CCCCCCCCCCCCNC(=O)CCN(CCC(=O)NCCCCCCCCCCCC)CCN(CCO)CCO [ND86] | – | 0.5% | – | 0.2% | – | 0.0% | – | 0.0% | – | 0.0% | – | 0.0% | – | – | – | – | – | –
17 | CCCCCCCCCCOC(=O)CCN(CCCN(CC)CC)CCC(=O)OCCCCCCCCCC [LB81] | – | 0.4% | – | 0.4% | – | 0.2% | – | 0.3% | – | 0.4% | – | 0.5% | – | – | – | – | – | –
18 | CCCCCCCCCCCCCCCOC(=O)CC[N+](C)(CCC(=O)OCCCCCCCCCCCCCCC)CC1COC(C)(C)O1.[I-] (centres unmarked) [QG7] | – | 0.4% | – | 0.3% | – | 0.5% | – | 0.3% | – | 0.4% | – | 0.3% | – | – | – | – | – | –
